# In US10639287B2, “Compounds for the treatment of mitochondrial diseases” (UNIVERSITE PARIS-SUD, priority 2014, dated 2020):
# Legend:
# [1] = tested on: complex I in neuronal cybrids derived from a MELAS patient (m.3243A>G tRNA^Leu mutation); assay: Ratio of complex I/citrate synthase activities in MELAS neuronal cybrids; assay type: cell-based, human; conditions: 1 μM or 300 nM, 48 hours
# Procedure: The mutant MELAS neuronal transmitochondrial line, which is the result of the fusion of the immortalised neuoroblastoma parental line SHSY-5Y with fibroblasts carrying the mutation m.3243A>G, was created in the laboratory of Prof. Procaccio.
# Neuronal cybrid lines carrying the MELAS mutation and the parental control line were grown in sterile culture flasks and incubated at 37° C. with 5% CO2 in a medium composed of DMEM with 1.5 g/L glucose, 2 mM L-glutamine and supplemented with 10% foetal bovine serum as well as uridine (5 μg/ml) and pyruvate (10 μg/mL). […]
# (§1) The MELAS neuronal cybrid line carrying the mutation seemingly in the homoplasmic state (i.e. reaching almost 100% MELAS mutation) and the SHSY-5Y parental control line were used for measurements of enzyme activities. […] These cell pellets were then analysed by spectrophotometry with measurement of the different mitochondrial biochemical activities, particularly the activity of citrate synthase and the activity of complex I of the respiratory chain. […]
# The enzymatic activities were measured according to the protocol described in Medjda et al, 2009 (Medja F, Allouche S, Frachon P, Jardel C, Malgat M, Mousson de Camaret B, Slama A, Lunardi J, Mazat J P, Lombès A. Development and implementation of standardized respiratory chain spectrophotometric assays for clinical diagnosis. Mitochondrion. 2009 September; 9(5):331-9).
# [2] = tested on: neuronal cybrids derived from a MELAS patient (m.3243A>G tRNA^Leu mutation); assay: Lactate production of MELAS neuronal cybrids; assay type: cell-based, human; conditions: 1 μM or 300 nM, 48 hours
# Procedure: The increase in the lactate production is the result of a toxicity of the drug used, but also of a mitochondrial dysfunction (energy deficiency) present in MELAS syndrome.
# Neuronal cybrid lines carrying the MELAS mutation and the parental control line were grown in sterile culture flasks and incubated at 37° C. with 5% CO2 in a medium composed of DMEM with 1.5 g/L glucose, 2 mM L-glutamine and supplemented with 10% foetal bovine serum as well as uridine (5 μg/ml) and pyruvate (10 μg/mL). The cells were harvested by trypsinisation in exponential phase and were used for subsequent biochemical or molecular mitochondrial analyses.
# as §1
# The lactate concentration of the culture medium for neuronal cybrid and parental cells was determined by spectrophotometry using an enzymatic kit (Bohringer) on a Hitachi-Roche apparatus (Roche Diagnostics GmbH). […]
compound,measurement,setting,value
CCCCCCCN(CC)CCCC(O)c1ccc(NS(C)(=O)=O)cc1 (centres unmarked) [ibutilide],activity of complex I (ratio complex I/citrate synthase),[1],increased
same,production of lactate,[2],decreased
